Measured values from patent US20250041277A1, “METHODS AND DOSING REGIMENS COMPRISING A CDK2 INHIBITOR AND A CDK4 INHIBITOR FOR TREATING CANCER” (PFIZER INC., priority 2021, published 2025).

Key:
NCI-2291 = assay: Combinatorial activity in LUAD cell line NCI-2291; format: cell-based; settings: NCI-2291, KRAS G12C/F/V; single agent; read-out: (nM) s.a.
Method: (§1) Combinatorial activity of PF-07104091 and PF-07220060 was assessed in LUADs as single agents (s.a.) or in combination.

CAL12T = assay: Combinatorial activity in LUAD cell line CAL12T; format: cell-based; settings: Homo sapiens, CAL-12T, WT, single agent, read-out: (nM) s.a.
Method: as §1

[1] = system: HCC1428 breast cancer model; assay: In vivo efficacy, HR+/HER2− HCC1428 breast cancer model (Example 3); design: species or system NSG mice; settings: HCC1428, Day 42; PO BID: PF-07104091 150 mpk, PF-07220060 60 mpk, palbociclib 10 mpk
Method: (§2) Female NSG mice (Jackson Lab) were subcutaneously implanted with fragment (27 mm^3 to 64 mm^3 size) into the dorsal region. All mice for T47D, HCC1428 and ST941 PBR studies were supplemented with 8.5 μg/mL estradiol water (β-Estradiol Sigma-Aldrich, cat #E2758-5G) and gave ad libitum till end of study. For the in vivo efficacy studies, tumor volume and body weights were measured twice a week. Tumor volume was calculated using the [(Length×Width×Width)/2)] formula. TGI was calculated as 100*(1−ΔT/ΔC). The ΔC (ΔT) was obtained by subtracting the mean tumor burden in the vehicle (treated) group on the first day of treatment (Day 0) from the mean tumor burden in vehicle (treated) group on the assessment day. Statistical analysis was performed using ANCOVA when the mean tumor volume in vehicle treated mice reached tumor cutoff size.
(§3) The HCC1428 model was established by implanting passage 4 tumor fragments into recipient mice. To establish the HCC1428 donor mice, tumor cells (5×10^6 cell/mouse with 50% Cultrex® Basement Membrane Matrix) were subcutaneously implanted in female NSG mice. Once reaching a range of 700 to 800 mm^3, donor tumors were subsequently transplanted into secondary recipient mice for a study expansion. […] PF-07104091 (lot 016), PF-07220060 (lot 019) and PD-0332991 (lot GR08498) were administered (PO.) BID (7 hr apart). All mice received treatment continuously until Day 42. TGI was assessed on Day 42 post first dose.

NCIH1944 = assay: Combinatorial activity in LUAD cell line NCIH1944; format: cell-based; settings: Homo sapiens, NCI-H1944; NCIH1944, KRAS G13D; single agent; read-out: (nM) s.a.
Method: as §1

[2] = system: MCF7 breast cancer cell line; assay: Cell proliferation combination assay (Loewe Volume, CI), MCF7; format: cell-based, Human; settings: MCF7 cells; for Best CI: Best CI Level 70
Method: (§4) The combination effects of PF-07104091 and PF-07220060 were evaluated in a cell proliferation assay with MCF7 and T47D BC cell lines.
(§5) Drug combinations were analyzed using the Dose Equivalence Principle, and the Loewe Volume score. When modeling synergy using the Dose Equivalence Principle, the Loewe Volume score for the combination compounds should be greater than the compound self-cross controls, and the Combination Index (C) score for the combination compounds should be less than compound self-cross controls. […] The isobolograms set to an anti-proliferation threshold at 70% confirmed a synergistic response.

NCIH2228 (RB mut) = assay: Combinatorial activity in LUAD cell line NCIH2228; format: cell-based; settings: Homo sapiens, NCI-H2228, WT, single agent, read-out: (nM) s.a.
Method: as §1

[3] = system: T47D breast cancer cell line; assay: Cell proliferation combination assay (Loewe Volume, CI), T47D; format: cell-based, Human; settings: T-47D cells; for Best CI: Best CI Level 70
Method: as §4, §5

NCI-H2347 = assay: Combinatorial activity in LUAD cell line NCI-H2347; format: cell-based; settings: Homo sapiens; NCI-H2347, KRAS L19F; single agent; read-out: (nM) s.a.
Method: as §1

NCIH2126 = assay: Combinatorial activity in LUAD cell line NCIH2126; format: cell-based; settings: Homo sapiens, NCI-H2126; NCIH2126, WT; single agent; read-out: (nM) s.a.
Method: as §1

NCIH2023 = assay: Combinatorial activity in LUAD cell line NCIH2023; format: cell-based; settings: NCI-H2023; NCIH2023, WT; single agent; read-out: (nM) s.a.
Method: as §1

A427 = assay: Combinatorial activity in LUAD cell line A427; format: cell-based; settings: Homo sapiens, A-427; A427, KRAS G12D; single agent; read-out: (nM) s.a.
Method: as §1

HCC2935 = assay: Combinatorial activity in LUAD cell line HCC2935; format: cell-based; settings: Homo sapiens; HCC2935, WT; single agent; read-out: (nM) s.a.
Method: as §1

T47D breast cancer model = assay: In vivo efficacy, HR+/HER2− T47D breast cancer model (Example 3); design: species or system NSG mice; settings: Day 41, PO BID: PF-07104091 150 mpk, PF-07220060 60 mpk, palbociclib 10 mpk
Method: as §2
as §3, with “The T47D” for “The HCC1428”, “passage 3” for “passage 4”, “the T47D” for “the HCC1428”, “Day 41.” for “Day 42.”, “Day 41” for “Day 42”

## COCc1cc(C(=O)Nc2cc([C@H]3CC[C@@H](OC(=O)NC(C)C)C3)[nH]n2)n(C)n1 [PF-07104091, (1R,3S)-3-[3-({[3-(methoxymethyl)-1-methyl-1H-pyrazol-5-yl]carbonyl}amino)-1H-pyrazol-5-yl]cyclopentyl propan-2-ylcarbamate]
NCI-2291
  IC50: ~1200 nM
CAL12T
  IC50: 220 nM
[1]
  TGI %: 95%
NCIH1944
  IC50: 227 nM
[2]
  Loewe Volume: −0.08
  Best CI: 1.04
NCIH2228 (RB mut)
  IC50: ~1000 nM
[3]
  Loewe Volume: 0.01
  Best CI: 0.95
NCI-H2347
  IC50: 364 nM
NCIH2126
  IC50: 372 nM
NCIH2023
  IC50: > 450 nM
A427
  IC50: 276 nM
HCC2935
  IC50: 280 nM
T47D breast cancer model
  TGI %: 82%

## CC(C)n1c(C(C)(C)O)nc2c(F)cc(-c3nc(N[C@@H]4CCOC[C@H]4O)ncc3Cl)cc21 [PF-07220060, 1,5-anhydro-3-({5-chloro-4-[4-fluoro-2-(2-hydroxypropan-2-yl)-1-(propan-2-yl)-1H-benzimidazol-6-yl]pyrimidin-2-yl}amino)-2,3-dideoxy-D-threo-pentitol]
NCI-2291
  IC50: 138 nM
CAL12T
  IC50: 210 nM
[1]
  TGI %: 89%
NCIH1944
  IC50: 398 nM
[2]
  Loewe Volume: −0.02
  Best CI: 1.06
NCIH2228 (RB mut)
  IC50: 839 nM
[3]
  Loewe Volume: 0.00
  Best CI: 0.97
NCI-H2347
  IC50: 70 nM
NCIH2126
  IC50: 255 nM
NCIH2023
  IC50: 310 nM
A427
  IC50: 124 nM
HCC2935
  IC50: 141 nM
T47D breast cancer model
  TGI %: 73%
